Assay results: patent US20260209152A1, “Substituted Hydroxystilbene Compounds and Derivatives, Synthesis and Uses Thereof” (Kynan Duke IP, LLC, priority 2019, published 2026)
“And” between values parts separate entries of the source, which are not always exact repeats. Equal values may be shown once. Read-outs that look alike come from different tables or passages of the source.

Key:
[1] = test system: CCL2 release from IL-4, IL-13, IL-22 and IFN-γ-stimulated primary human keratinocytes; experiment: Keratinocyte CCL2 release (LEO Pharma Open Innovation assay number 1280); type: cell-based; conditions: for EC50 / Emax: Homo sapiens, Keratinocyte; for Emax: read-out: maximum efficacy, CCL2 secretion; for Max Eff.: CCL2 (1280): highest effect as percentage of control maximum effect
Method: Inhibition of CCL2 release from IL-4, IL-13, IL-22 and IFN-γ-stimulated primary human keratinocytes LEO Pharma Open Innovation assay number 1280
The inflammatory skin disease atopic dermatitis (AD) is characterized by the T-cell cytokines including IL-4, IL-13, IL-22 and IFN-γ. In the present assay, keratinocytes are stimulated with a mixture of these cytokines, and the release of CCL2 (also called monocyte chemoattractant protein 1 (MCP-1)) is measured in the culture supernatant by proximity homogenous time-resolved fluorescence (HTRF). […] Compound which inhibit keratinocyte CCL2 secretion may be expected to have efficacy in atopic dermatitis.
HEKa are human epidermal keratinocytes isolated from adult skin. The cells have been cryopreserved at the end of the primary culture stage in a medium containing 10% DMSO. Sterile cell culture work applies.
• Trypsinize the cells as described above. • Resuspend pellet in 10 ml assay medium (EpiLife Medium with HKGS Kit but without hydrocortisone) • Filter the cells though a 37 µm strainer. • Count cells using a cell counter. • Seed HEKa cells in 384-well view plates 3500 c/w/40 μL. • Place the plates with lids on in a humidity chamber with lid (24.5×24.5 cm box added H2O in the bottom). • Incubate plates over night at 37° C., 5% CO2/95% air
• Prepare compound-containing source plate, i.e. titrations in DMSO to be transferred to the assay plate. • Add 80 nL compounds and controls from the source plate to the assay plate (with cells). • Add 40 μL stimulation (recombinant human interleukin (IL) 4, 13, 22 at 10 ng/mL and Interferon-gamma at 1 ng/mL) in medium with supplement, but without hydrocortisone. • Incubate plates at 37° C., 5% CO2/95% air for 2 days.
• Remove plates from incubation and equilibrate to room temperature for 30 minutes. • Transfer […] supernatant to white proxi 384-well plates for CCL2 detection. • Add […] media to the detection plate. • Add […] CCL2 HTRF detection reagent (to the white proxi 384w). • Seal and incubate for 4 hours and read in a plate reader.
CCL2 concentration in the supernatants is measured using homogeneous time-resolved fluorescence resonance (TR-FRET). The assay is quantified by measuring fluorescence at 665 nm (proportional to CCL2 concentration) and 620 nm (control). A ratio 665/620*1000 is calculated.

[2] = test system: primary human keratinocytes; experiment: Cell viability in keratinocyte CCL2 assay (assay number 1243); type: cell-based; conditions: Homo sapiens
Description: (§1) • 1. Determination of inhibition of CCL2 release from IL-4, IL-13, IL-22 and IFN-γ-stimulated primary human keratinocytes [assay number 1280] and determination of the effect on cell viability [assay number 1243]. • 2. Determination of inhibition of IL-8 release from IL-17A and TNFα-induced primary human keratinocytes [assay number 1250] and determination of the effect on cell viability [assay number 1244]. • 3. Determination of inhibition of IL-17A secretion from human PBMC stimulated with antiCD3/antiCD28-coated beads [assay number 1321] and determination of the effect on cell viability [assay number 1322]. • 4. Determination of inhibition of IL-4 and IL-2 secretion from human CD4-positive T-cells stimulated with antiCD2/antiCD3/antiCD28-coated beads [assay number 1297, 1298] and determination of the effect on cell viability [assay number 1299].

[3] = as above; type: cell-based, human; conditions: human
Description: as §1

Kidney A-498 = experiment: CellTiter Glo cell viability assay; type: cell-based, human
How it was run: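 Cell viability of the human renal line A498 was measured by luminescence using CellTiter Glo (Promega), following the manufacturer's protocol, after plating 1.7*10^3 cells/well in 96-well plates. Relative luminescence units were plotted against log dose, and dose-response curves were fitted by nonlinear regression in GraphPad Prism 7 to derive IC50 values.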

[4] = test system: primary human keratinocytes; experiment: Cell viability in keratinocyte IL-8 assay (assay number 1244); type: cell-based; conditions: Homo sapiens
Description: as §1

[5] = as above; type: cell-based, human; conditions: human, primary human keratinocytes induced with IL-17A and TNFα
Description: as §1

[6] = half maximal effective concentration relative to control, inhibition of CCL2 release, keratinocytes, read-out: Abs EC50: CCL2 (1280)
[7] = read-out: EC50, inhibition of keratinocyte CCL2 secretion
[8] = Keratinocyte, cell viability in CCL2 assay, read-out: Abs EC50: Viab (1243)
[9] = keratinocyte CCL2 assay, read-out: EC50, cell viability
[10] = keratinocyte CCL2 assay, read-out: maximum reduction of cell viability
[11] = Homo sapiens, A498, A-498/HTB-44, 11 dilutions 3-0.00001 μM, Table 6, read-out: IC50
[12] = Homo sapiens, A498, Table 5A: 11 dilutions 3-0.00001 μM, single experiments Exp E-K, read-out: IC50
[13] = Keratinocyte, cell viability in IL-8 assay, read-out: Abs EC50: Viab (1244)
[14] = keratinocyte IL-8 assay, read-out: EC50, cell viability
[15] = keratinocyte IL-8 assay, read-out: maximum reduction of cell viability
[16] = maximum reduction of cell viability in CCL2 assay, read-out: Max Eff.: Viab (1243)
[17] = maximum reduction of cell viability in IL-8 assay, read-out: Max Eff.: Viab (1244)
[18] = Homo sapiens, A498, Table 5A: 11 dilutions 3-0.00001 μM, average of experiments, read-out: IC50 average
[19] = Homo sapiens, A498, 72 h, 3 Days of treatment, 18 2-fold dilutions 5-0.00003 μM, read-out: Average IC50
[20] = Homo sapiens, A498, 72 h, Table 4: 3 Days of treatment, 18 2-fold dilutions 5-0.00003 μM, Average (1, 8) or single Exp A-D, read-out: IC50

Row | SMILES | EC50 [1, 6] | Max Eff.: CCL2 (1280) [1] | EC50 [2, 8] | IC50 (Kidney A-498; [11]) | IC50 (Kidney A-498; [12]) | EC50 [4, 13] | cytotoxicity [3, 16] | cytotoxicity [5, 17] | IC50 (Kidney A-498; [18]) | also measured
1 | CCOc1cc(O)cc(/C=C/c2ccc(NC=O)c(OC)c2)c1CC=C(C)C [Compound 28, (E)-N-(4-(3-Ethoxy-5-hydroxy-2-(3-methylbut-2-en-1-yl)styryl)-2-methoxyphenyl)formamide] | 40 nM | 100% | 124 nM | 198 nM | 100 to 1000 nM | 35 nM | – | – | – | reduction of CCL2 release, in words [1]: medium potency reduction of CCL2 release; EC50 [1, 7]: 40 nM; Emax [1]: 100%; EC50 [2, 9]: 124 nM; cytotoxicity [3, 10]: 68%; IC50 (Kidney A-498; Table 5A: 11 dilutions 3-0.00001 μM, single experiments Exp E-K, read-out: IC50): 180 nM and 181 nM; EC50 [4, 14]: 35 nM; cytotoxicity [5, 15]: 81%
2 | CCOc1cc(O)cc(/C=C/c2ccc(NC(=O)C(=O)O)c(OC)c2)c1CC=C(C)C [Compound 35, (E)-2-((4-(3-Ethoxy-5-hydroxy-2-(3-methylbut-2-en-1-yl)styryl)-2-methoxyphenyl)amino)-2-oxoacetic acid] | 1130 nM | 79% | 5000 nM | – | > 3000 nM | 5000 nM | 30% | 72% | – | –
3 | COc1cc(/C=C/c2cc(O)cc(OC)c2CC=C(C)C)ccc1NC=O [Compound 27, (E)-N-(4-(5-hydroxy-3-methoxy-2-(3-methylbut-2-en-1-yl)styryl)-2-methoxyphenyl)formamide] | 32 nM | 100% | 41 nM | 642 nM | – | 32 nM | – | – | 728 nM | EC50 [1, 7]: 32 nM; Emax [1]: 100%; EC50 [2, 9]: 41 nM; cytotoxicity [3, 10]: 67%; EC50 [4, 14]: 32 nM; cytotoxicity [5, 15]: 83%
4 | CCOc1cc(O)cc(/C=C/c2ccc(O)c(O)c2)c1CC=C(C)C [Compound 20, (E)-4-(3-Ethoxy-5-hydroxy-2-(3-methylbut-2-en-1-yl)styryl)benzene-1,2-diol] | 108 nM | 99% | 442 nM | 620 nM | – | 221 nM | 61% | 76% | – | –
5 | COc1cc(/C=C/c2cc(O)cc(OC)c2CC=C(C)C)ccc1O [Compound 1, (E)-3-(4-hydroxy-3-methoxystyryl)-5-methoxy-4-(3-methylbut-2-en-1-yl)phenol] | 123 nM | 101% | 202 nM | 1070 nM | – | 90 nM | 77% | 92% | 1140 nM | IC50 (Kidney A-498; [19]): 2810 nM; IC50 (Kidney A-498; [20]): 109 nM
6 | COc1cc(/C=C/c2cc(O)cc(OC)c2CC=C(C)C)ccc1NC(=O)CN [Compound 31, (E)-2-amino-N-(4-(5-hydroxy-3-methoxy-2-(3-methylbut-2-en-1-yl)styryl)-2-methoxyphenyl)acetamide] | 445 nM | 100% | 431 nM | – | > 3000 nM | 416 nM | 86% | 100% | – | –
7 | CCOc1cc(O)cc(/C=C/c2ccc(O)c(OC)c2)c1CC=C(C)C [Compound 8, (E)-3-Ethoxy-5-(4-hydroxy-3-methoxystyryl)-4-(3-methylbut-2-en-1-yl)phenol] | 50 nM | 102% | 235 nM | 401 nM | – | 32 nM | 99% | 101% | 360 nM | IC50 (Kidney A-498; [19]): 329 nM; IC50 (Kidney A-498; [20]): 10.3 nM; Fold IC50 (Kidney A-498; IC50 of 1 [KYN-001] vs 8 [KYN-119], 3 Days): 8.5; IC50 (Kidney A-498; Table 5A: 11 dilutions 3-0.00001 μM, average of experiments, read-out: IC50 average): 430 nM
